Data: patent publication US7276576B1, “Mammalian ICYP (iodocyanopindolol) receptor and its applications” (Dainippon Sumitomo Pharma Co., Ltd., priority 1996, dated 2007)
Where “and” joins values, the source holds several entries; their conditions need not be identical. Equal values may be shown once. Where a name gives a salt, the structure may show the parent alone. Read-outs that look alike come from different tables or passages of the source. Values belong to the compound of their own block, whether it stands above or below them.

Legend:
[1] = system: atypical β-AR in rat colon; conditions: under blockade of β1- and β2-AR effects; McLaughlin, MacDonald et al.; cited from earlier work
[2] = molecular target: T1, [125I]-ICYP specific binding site (SMBP, SM-11044 binding protein) in rat colon smooth muscle membranes (Rattus norvegicus, UniProt A0A8I6A822); experiment: [125I]-ICYP saturation and competition binding to rat colon membranes (Example 2)
T1 construct: Membranes from colon smooth muscles were prepared as essentially described by Ek et al., 1986; from tissue
Procedure: Incubations were carried out at 37° C. for 30 min in a shaking water-bath incubator and terminated by addition of 4 ml of ice-cold Tris-saline followed by rapid filtration under vacuum on Whatman GF/B filter presoaked in Tris-saline containing 0.1% polyethyleneimine (pH 7.4). The filters were washed three times with 4 ml of ice-cold Tris-saline, transferred to plastic tubes and counted in a γ-counter.
Hill coefficient was calculated by linear regression using saturation experiment data. Pseudo-Hill coefficient and IC50 were determined by the computer program, InPlot™ (GraphPad Software, CA, USA).

rat white adipocytes = experiment: Lipolysis in rat white adipocytes; type: cell-based
Procedure: White adipocytes were isolated from epididymal fat pads of male Wistar rats (190-230 g) and lipolysis was determined according to the previous report (Sugasawa T. et al. cited above). The cells were preincubated for 5 min at 37° C. in the presence of 30 μM ascorbic acid, 10 μM phentolamine and 1 μM propranolol.
Agonists were then applied and incubated for 90 min. In the case of testing the effect of cyanopindolol, it was added 5 min before the addition of agonist.
(§1) Agonist concentration-ratios (CR) were determined from the EC50 values of the concentration-response curves of agonists with or without cyanopindolol, according to the method of Arunlakshana et al., 1959.
(§2) The EC50 values were calculated using the computer program, InPlot™.

[3] = system: rat colon smooth muscle segment; experiment: Relaxation of KCl-induced tonus in rat colon segment (organ bath)
Procedure: Rat colon segment (2 cm) was suspended in organ bath containing 10 ml modified-Tyrode solution (Sugasawa T. et al. Eur. J. Pharmacol., 1992, 216, 207-215). The Tyrode solution contained 0.5 μM atropine, 0.5 μM desmethylimipramine, 30 μM hydrocortisone, 30 μM ascorbic acid, 10 μM phentolamine and 1 μM propranolol throughout study, in order to inhibit spontaneous contraction, neuronal and extra-neuronal uptake of norepinephrine, oxidation of catecholamines, possible α, β1- and β2-AR effects, respectively.
The relaxant action of agonists was determined by measuring relaxation of KCl (100 mM)-induced tonus evoked by cumulative addition of the agonists as described previously (Sugasawa T. et al. cited above). In the case of testing the effect of cyanopindolol, it was added 5-10 min before the addition of agonist.
as §1, §2

[4] = system: [125I]-ICYP specific binding site in rat skeletal muscle membranes; experiment: [125I]-ICYP binding to rat skeletal muscle membranes; conditions: 1 nM [125I]-ICYP; 10 μM 5-HT, 10 μM phentolamine and 20 μM propranolol
Procedure: Membranes from the colon smooth muscle and from skeletal muscle were prepared from male Wistar rats (300-360 g) as essentially mentioned in example 1.
Saturation binding studies were performed in a final volume of 200 μl of Tris-saline containing 50 μg membrane proteins and different concentrations ([…]) of [^125I]-ICYP, supplemented with 10 μM serotonine (5-HT), 10 μM phentolamine, 20 μM propranolol and 1.1 mM ascorbic acid (pH 7.4), to block possible 5-HT receptors, ARs and oxidation of catecholamines, respectively. The [^125I]-ICYP was used after removing methyl alcohol by compressed air to avoid the influence of the solvent. […] The filters were washed three times with 4 ml of ice-cold Tris-saline, transferred to plastic tubes and counted in a γ-counter.
Competition assays were performed against 1 nM [^125I]-ICYP. Non-specific binding was determined in the presence of 100 μM SM-11044. The inhibition constant, Ki, of a ligand was calculated using the equation described by Cheng and Prusoff (Biochem. Pharmacol., 1973, 22, 3099-3108). Hill coefficient was calculated by linear regression using saturation experiment data. Pseudo-Hill coefficient and IC50 were determined by the computer program, InPlot™ (GraphPad Software, CA, USA).

guinea pig eosinophil = experiment: Leukotriene B4 induced guinea pig eosinophil chemotaxis; type: cell-based
guinea pig ileum = experiment: Guinea pig ileum relaxation of KCl-induced tonus; conditions: compared with rat white adipocyte lipolysis
[5] = agonist (−)-isoproterenol, 10 μM phentolamine and 1 μM propranolol, listed as Cyanopindolol
[6] = agonist (−)-isoproterenol, 10 μM phentolamine and 1 μM propranolol, listed as cyanopindolol
[7] = agonist SM-11044, 10 μM phentolamine and 1 μM propranolol, listed as Cyanopindolol
[8] = agonist SM-11044, 10 μM phentolamine and 1 μM propranolol, listed as cyanopindolol
[9] = up to the concentration of 10 μM
[10] = 10 μM phentolamine and 1 μM propranolol, relative to isoproterenol, mean ± SEM

T1 sequence (A0A8I6A822 27-587): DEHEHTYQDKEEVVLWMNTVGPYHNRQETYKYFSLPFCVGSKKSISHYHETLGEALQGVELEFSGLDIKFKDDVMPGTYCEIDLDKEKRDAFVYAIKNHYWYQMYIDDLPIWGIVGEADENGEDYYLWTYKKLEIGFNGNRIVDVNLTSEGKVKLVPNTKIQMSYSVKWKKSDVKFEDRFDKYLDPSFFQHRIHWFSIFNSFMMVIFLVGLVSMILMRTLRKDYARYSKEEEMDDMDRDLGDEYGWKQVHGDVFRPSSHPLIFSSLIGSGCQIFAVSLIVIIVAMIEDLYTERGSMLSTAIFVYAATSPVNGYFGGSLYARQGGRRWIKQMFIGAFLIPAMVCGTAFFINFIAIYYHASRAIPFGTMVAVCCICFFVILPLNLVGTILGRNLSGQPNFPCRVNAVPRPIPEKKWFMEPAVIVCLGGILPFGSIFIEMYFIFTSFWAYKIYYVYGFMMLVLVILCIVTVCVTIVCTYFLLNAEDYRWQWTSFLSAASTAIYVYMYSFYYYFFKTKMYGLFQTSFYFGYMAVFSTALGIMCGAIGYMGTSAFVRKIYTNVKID

Compound: CC(C)(C)NCC(O)COc1cccc2[nH]c(C#N)cc12 (racemic) [(±)-cyanopindolol, cyanopindolol]
pA2 against propranolol-resistant responses of isoproterenol in rat colon [1]: 7.12 | Ki [2]: 110 nM | Pseudo-Hill coefficient ([2]; 1 nM [125I]-ICYP, 10 μM 5-HT, 10 μM phentolamine and 20 μM propranolol): 1.01 ± 0.14 | Slope of Schild plot for cyanopindolol, rat white adipocytes (rat white adipocytes; [5]): 1.08 | pA2 for cyanopindolol, rat white adipocytes (rat white adipocytes; [5]): 7.44 | Slope of Schild plot for cyanopindolol, rat white adipocytes (rat white adipocytes; [6]): 1.08 ± 0.10 | pA2 for cyanopindolol, rat white adipocytes (rat white adipocytes; [6]): 7.44 ± 0.61 | Slope of Schild plot for cyanopindolol, rat white adipocytes (rat white adipocytes; [7]): 0.96 | pA2 for cyanopindolol, rat white adipocytes (rat white adipocytes; [7]): 7.32 | Slope of Schild plot for cyanopindolol, rat white adipocytes (rat white adipocytes; [8]): 0.96 ± 0.21 | pA2 for cyanopindolol, rat white adipocytes (rat white adipocytes; [8]): 7.32 ± 1.51 | Stimulation of lipolysis by the compound itself (rat white adipocytes; [9]): did not stimulate lipolysis | Slope of Schild plot for cyanopindolol, rat colon [3, 5]: 1.03 | pA2 for cyanopindolol, rat colon [3, 5]: 7.65 | Slope of Schild plot for cyanopindolol, rat colon [3, 6]: 1.03 ± 0.08 | pA2 for cyanopindolol, rat colon [3, 6]: 7.65 ± 0.48 | Slope of Schild plot for cyanopindolol, rat colon [3, 7]: 0.78 | pA2 for cyanopindolol, rat colon [3, 7]: 8.31 | Slope of Schild plot for cyanopindolol, rat colon [3, 8]: 0.78 and 0.78 ± 0.11 | pA2 for cyanopindolol, rat colon [3, 8]: 8.31 and 8.31 ± 0.88 | Effect of the compound itself on the degree of tonus induced by KCl [3, 9]: had no effect

Pseudo-Hill coefficient ([2]; 1 nM [125I]-ICYP, 10 μM 5-HT, 10 μM phentolamine and 20 μM propranolol, hydrobromide): 1.00 ± 0.12 | Ki ([2]; 1 nM [125I]-ICYP, 10 μM 5-HT, 10 μM phentolamine and 20 μM propranolol, read-out: Ki on [125I]-ICYP specific binding to rat colon membranes): 1800 ± 300 nM | EC50 (rat white adipocytes; Rattus norvegicus, Adipocyte, 10 μM phentolamine and 1 μM propranolol, mean ± SEM, read-out: pD2, rat white adipocyte lipolysis (converted)): 1100 nM | EC50 ([3]; Rattus norvegicus, relaxation of KCl (100 mM)-induced tonus, 10 μM phentolamine and 1 μM propranolol, mean ± SEM, read-out: pD2, rat colon relaxation (converted)): 51.3 nM
Compound: O=C([C@@H](NCCCc1ccc(F)cc1)[C@H](O)c1ccc(O)c(O)c1)N1CCCC1 [SM-11044, (L)-threo-3-(3,4-dihydroxyphenyl)-N-[3-(4-fluorophenyl)propyl]serine pyrrolidine amide hydrobromide]
IA, rat white adipocyte lipolysis (rat white adipocytes; [10]): 0.86 ± 0.054 | Displacement of [125I]-ICYP specific binding to skeletal muscle membranes [4]: displaced the binding in a concentration-dependent manner | Inhibition of leukotriene B4 induced guinea pig eosinophil chemotaxis (guinea pig eosinophil): inhibiting | IA, rat colon relaxation [3, 10]: 1.48 ± 0.166 | Relaxation of KCl-induced tonus in guinea pig ileum (in words) (guinea pig ileum): more efficiently than rat white adipocyte lipolysis
